US4837207A, “Diastereoisomers of n^6 -endo-bicyclo[2.2.1]heptyladenosine as antihypertensives with selective action” (priority 1987, dated 1989)

Columns and labels:
[1] = Antihypertensive evaluation (AHP3); type: in vivo; settings: AHP3 antihypertensive assay; Table 2; read-out: ED40 (Dose causing a 40 nm drop in blood pressure)
Text: *Dose causing a […] drop in blood pressure, mg/kg.

A1 adenosine receptor = target: T1, A1 adenosine receptor (Rattus norvegicus, UniProt P25099); test: adenosine A1 receptor binding affinity; settings: Table 1, n = 2 (mixture, VII'), n = 1 (VII"), read-out: A1 IC50 ± SE
T1 construct: from tissue
T1 sequence (P25099 1-326): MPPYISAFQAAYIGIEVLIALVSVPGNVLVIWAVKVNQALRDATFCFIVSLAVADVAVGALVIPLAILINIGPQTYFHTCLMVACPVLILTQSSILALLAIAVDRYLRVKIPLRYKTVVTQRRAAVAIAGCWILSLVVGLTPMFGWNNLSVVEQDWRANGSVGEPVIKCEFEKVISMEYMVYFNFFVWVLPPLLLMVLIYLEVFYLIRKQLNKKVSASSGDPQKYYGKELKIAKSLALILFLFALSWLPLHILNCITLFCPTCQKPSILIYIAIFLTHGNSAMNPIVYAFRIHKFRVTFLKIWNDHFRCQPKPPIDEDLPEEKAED

Row | SMILES | ED (40 mm drop in blood pressure) [1] | IC50 (A1 adenosine receptor)
1 | OC[C@H]1O[C@@H](n2cnc3c(N[C@@H]4C[C@@H]5CC[C@H]4C5)ncnc32)[C@H](O)[C@@H]1O [Example 2 (VII"), (1S-endo)-N-Bicyclo[2.2.1]hept-2-yl adenosine] | 0.7 mg/kg | 2.63 nM
2 | OC[C@H]1O[C@@H](n2cnc3c(N[C@H]4C[C@H]5CC[C@@H]4C5)ncnc32)[C@H](O)[C@@H]1O [Example 1 (VII'), (1R-endo)-N-Bicyclo[2.2.1]hept-2-yl adenosine] | 0.16 mg/kg | 
3 | OC[C@H]1O[C@@H](n2cnc3c(NC4CC5CCC4C5)ncnc32)[C@H](O)[C@@H]1O (mixture of isomers) [Diastereomeric mixture, N^6-endo-bicyclo[2.2.1]heptyl adenosine] | 0.6 mg/kg | 0.738 ± 0.088 nM
